Measured values from publication PMC9808420 (Biomedicine & Pharmacotherapy, 2023).
Structures can show the parent of a compound that is named as a salt. Where two headings read alike, the source gives them in different places.

What was measured:
[1] = tested on: VSV-G pseudotyped lentivirus; test: microbe, parasite or virus in culture; type: cell-based; conditions: read-out: EC50 (VSVG)
[2] = target: RBD domain of S protein (Severe acute respiratory syndrome coronavirus 2, UniProt P0DTC2); test: biochemical; type: binding, SARS-CoV-2
[3] = tested on: SARS-CoV-2 pseudovirus; test: organism not typed; type: cell-based; conditions: read-out: EC50 (S)
[4] = target: SARS-CoV-2 Spike protein RBD and human ACE2 (Severe acute respiratory syndrome coronavirus 2, UniProt P0DTC2); type: binding, SARS-CoV-2; human

Row | Molecule | EC50 ([1]; Lentivirus) | Kd [2] | EC50 ([3]; 48 h) | Blocking of binding of SARS-CoV-2 RBD to ACE2 in vitro [4] | EC50 [1] | Kd ([2]; read-out: KD (equilibrium dissociation constant)) | EC50 [3]
1 | CN[C@H](CC(C)C)C(=O)N[C@H]1C(=O)N[C@@H](CC(N)=O)C(=O)N[C@H]2C(=O)N[C@H]3C(=O)N[C@H](C(=O)N[C@H](C(=O)O)c4cc(O)cc(O)c4-c4cc3ccc4O)[C@H](O)c3ccc(c(Cl)c3)Oc3cc2cc(c3O[C@@H]2O[C@H](CO)[C@@H](O)[C@H](O)[C@H]2O[C@H]2C[C@](C)(N)[C@H](O)[C@H](C)O2)Oc2ccc(cc2Cl)[C@H]1O [Vancomycin hydrochloride] | > 100 µM | 1600 µM | > 100 µM |  |  |  | 
2 | Teicoplanin |  |  |  | fail to block binding | > 100 µM | 673 µM | > 100 µM
